{"source": "patent US9029389B2", "about": "(Institut Pasteur Korea, priority 2011, dated 2015)", "data": [{"target": "T1, Human 5-lipoxygenase (Homo sapiens, UniProt P09917)", "T1 construct": "purchased Cayman 60402; host or cells: insect cells", "T1 sequence (P09917 1-674)": "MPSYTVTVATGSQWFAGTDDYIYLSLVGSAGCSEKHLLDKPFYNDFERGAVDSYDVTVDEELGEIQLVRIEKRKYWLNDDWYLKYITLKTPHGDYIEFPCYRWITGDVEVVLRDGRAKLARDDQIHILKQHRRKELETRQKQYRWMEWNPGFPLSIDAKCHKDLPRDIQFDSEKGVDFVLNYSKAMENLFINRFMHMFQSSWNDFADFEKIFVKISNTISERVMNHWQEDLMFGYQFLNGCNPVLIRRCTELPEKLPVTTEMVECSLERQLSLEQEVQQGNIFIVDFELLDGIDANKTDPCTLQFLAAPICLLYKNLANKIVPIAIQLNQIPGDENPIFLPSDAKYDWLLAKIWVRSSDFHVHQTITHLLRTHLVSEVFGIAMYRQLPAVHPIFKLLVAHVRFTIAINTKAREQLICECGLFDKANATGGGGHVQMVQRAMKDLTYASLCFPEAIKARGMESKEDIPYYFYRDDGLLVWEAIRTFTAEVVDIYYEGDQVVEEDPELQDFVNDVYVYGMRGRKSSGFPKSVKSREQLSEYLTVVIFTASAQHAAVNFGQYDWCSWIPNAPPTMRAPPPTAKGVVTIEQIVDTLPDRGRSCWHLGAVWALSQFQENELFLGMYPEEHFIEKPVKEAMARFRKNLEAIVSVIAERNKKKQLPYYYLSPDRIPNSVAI", "assay": "Activity of compounds against 5-LO enzyme (LTB4 measurement and/or fluorescence method)", "assay_type": "biochemical", "settings": "5-LO, single concentration of 10 uM in duplicate", "how_it_was_run": "(§1)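 Insect-cell human 5-LO preincubated 15 min at RT with compound (pH 7.4, 2 mM CaCl2, 0.1 mM ATP, 1% DMSO), then 3 uM arachidonic acid for 5 min at 37 °C; LTB4 quantified by EIA and/or LC/MS/MS. Alternatively, fluorescence of 5-HpETE via H2DCFDA, 100 uM ATP, 3 uM arachidonic acid, 5 min, RT; single 10 uM screen then 6- or 11-point IC50.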", "units": {"inhibition at 10 µM": "%"}, "values": [{"smiles": "CCc1nc2ccc(Cl)cn2c1C(=O)NCc1ccn(-c2ccc(C(F)(F)F)cc2)n1", "note": "[compound 151, 6-Chloro-2-ethyl-N-((1-(4-(trifluoromethyl)phenyl)-1H-pyrazol-3-yl)methyl)imidazo[1,2-a]pyridine-3-carboxamide]", "inhibition at 10 µM": "< 40"}, {"smiles": "CCc1nc2cc(Cl)ccn2c1C(=O)NCc1ccn(-c2ccc(C(F)(F)F)cc2)n1", "note": "[compound 152, 7-Chloro-2-ethyl-N-((1-(4-(trifluoromethyl)phenyl)-1H-pyrazol-3-yl)methyl)imidazo[1,2-a]pyridine-3-carboxamide]", "inhibition at 10 µM": "40 to 69"}, {"smiles": "CCc1nc2ccc(Cl)cn2c1C(=O)NCc1ccn(-c2ccc(F)cc2)n1", "note": "[compound 153, 6-Chloro-2-ethyl-N-((1-(4-fluorophenyl)-1H-pyrazol-3-yl)methyl)imidazo[1,2-a]pyridine-3-carboxamide]", "inhibition at 10 µM": "< 40"}, {"smiles": "CCc1nc2cc(Cl)ccn2c1C(=O)NCc1ccn(-c2ccc(F)cc2)n1", "note": "[compound 154, 7-Chloro-2-ethyl-N-((1-(4-fluorophenyl)-1H-pyrazol-3-yl)methyl)imidazo[1,2-a]pyridine-3-carboxamide]", "inhibition at 10 µM": "< 40"}, {"smiles": "CCc1nc2ccc(Cl)cn2c1C(=O)N(C)Cc1ccc(Oc2ccc(F)cc2)cc1", "note": "[compound 164, 6-Chloro-2-ethyl-N-(4-(4-fluorophenoxy)benzyl)-N-methylimidazo[1,2-a]pyridine-3-carboxamide]", "inhibition at 10 µM": "> 69"}, {"smiles": "CCc1nc2ccc(Cl)cn2c1C(=O)NCc1ccc(N2CCC(Oc3ccc(Cl)cc3)CC2)cc1", "note": "[compound 166, 6-Chloro-N-(4-(4-(4-chlorophenoxy)piperidin-1-yl)benzyl)-2-ethylimidazo[1,2-a]pyridine-3-carboxamide]", "inhibition at 10 µM": "40 to 69"}, {"smiles": "CCc1nc2cc(Cl)ccn2c1C(=O)NCc1ccc(N2CCC(Oc3ccc(Cl)cc3)CC2)cc1", "note": "[compound 167, 7-Chloro-N-(4-(4-(4-chlorophenoxy)piperidin-1-yl)benzyl)-2-ethylimidazo[1,2-a]pyridine-3-carboxamide]", "inhibition at 10 µM": "40 to 69"}, {"smiles": "CCc1nc2ccc(Cl)cn2c1C(=O)NCc1ccc(N2CCC(Oc3ccc(C(F)(F)F)cc3)CC2)cc1", "note": "[compound 168, 6-Chloro-2-ethyl-N-(4-(4-(4-(trifluoromethyl)phenoxy)piperidin-1-yl)benzyl)imidazo[1,2-a]pyridine-3-carboxamide]", "inhibition at 10 µM": "40 to 69"}, {"smiles": "CCc1nc2cc(Cl)ccn2c1C(=O)NCc1ccc(N2CCC(Oc3ccc(C(F)(F)F)cc3)CC2)cc1", "note": "[compound 169, 7-Chloro-2-ethyl-N-(4-(4-(4-(trifluoromethyl)phenoxy)piperidin-1-yl)benzyl)imidazo[1,2-a]pyridine-3-carboxamide]", "inhibition at 10 µM": "40 to 69"}, {"smiles": "CCc1nc2ccc(Cl)cn2c1C(=O)NCc1ccc(OCc2ccc(OC(F)(F)F)cc2)cc1", "note": "[compound 170]", "inhibition at 10 µM": "< 40"}, {"smiles": "CCc1nc2cc(Cl)ccn2c1C(=O)NCc1ccc(OCc2ccc(OC(F)(F)F)cc2)cc1", "note": "[compound 171]", "inhibition at 10 µM": "< 40"}, {"smiles": "CCc1nc2ccc(Cl)cn2c1C(=O)NCc1ccc(OCc2ccc(F)cc2)cc1", "note": "[compound 172, 6-Chloro-2-ethyl-N-(4-(4-fluorobenzyloxy)benzyl)imidazo[1,2-a]pyridine-3-carboxamide]", "inhibition at 10 µM": "< 40"}, {"smiles": "CCc1nc2cc(Cl)ccn2c1C(=O)NCc1ccc(OCc2ccc(F)cc2)cc1", "note": "[compound 173, 7-Chloro-2-ethyl-N-(4-(4-fluorobenzyloxy)benzyl)imidazo[1,2-a]pyridine-3-carboxamide]", "inhibition at 10 µM": "40 to 69"}, {"smiles": "CCc1nc2ccc(Cl)cn2c1C(=O)NCc1ccc(Nc2ccc(OC(F)(F)F)cc2)cc1", "note": "[compound 174, 6-Chloro-2-ethyl-N-(4-(4-(trifluoromethoxy)phenylamino)benzyl)imidazo[1,2-a]pyridine-3-carboxamide]", "inhibition at 10 µM": "> 69"}, {"smiles": "CCc1nc2cc(Cl)ccn2c1C(=O)NCc1ccc(Nc2ccc(OC(F)(F)F)cc2)cc1", "note": "[compound 175, 7-Chloro-2-ethyl-N-(4-(4-(trifluoromethoxy)phenylamino)benzyl)imidazo[1,2-a]pyridine-3-carboxamide]", "inhibition at 10 µM": "> 69"}, {"smiles": "CCc1nc2ccc(Br)cn2c1C(=O)NCc1ccc(OC(F)(F)F)cc1", "note": "[compound 176, 6-Bromo-2-ethyl-N-(4-(trifluoromethoxy)benzyl)imidazo[1,2-a]pyridine-3-carboxamide]", "inhibition at 10 µM": "40 to 69"}, {"smiles": "CCc1nc2ccc(Br)cn2c1C(=O)NCc1ccc(Oc2ccc(F)cc2)cc1", "note": "[compound 177, 6-Bromo-2-ethyl-N-(4-(4-fluorophenoxy)benzyl)imidazo[1,2-a]pyridine-3-carboxamide]", "inhibition at 10 µM": "< 40"}, {"smiles": "CCc1nc2cc(Cl)c(Cl)cn2c1C(=O)NCc1ccc(OC(F)(F)F)cc1", "note": "[compound 178, 6,7-Dichloro-2-ethyl-N-(4-(trifluoromethoxy)benzyl)imidazo[1,2-a]pyridine-3-carboxamide]", "inhibition at 10 µM": "< 40"}, {"smiles": "CCc1nc2cc(Cl)c(Cl)cn2c1C(=O)NCc1ccc(N2CCN(Cc3ccc(F)cc3)CC2)cc1", "note": "[compound 179, 6,7-Dichloro-2-ethyl-N-(4-(4-(4-fluorobenzyl)piperazin-1-yl)benzyl)imidazo1,2-al pyridine-3-carboxamide]", "inhibition at 10 µM": "40 to 69"}, {"smiles": "CCc1nc2cc(Cl)c(Cl)cn2c1C(=O)NCc1ccc(N2CCN(c3ccc(F)cc3)CC2)cc1", "note": "[compound 180, 6,7-Dichloro-2-ethyl-N-(4-(4-(4-fluorophenyl)piperazin-1-yl)benzyl)imidazo[1,2-a]pyridine-3-carboxamide]", "inhibition at 10 µM": "< 40"}, {"smiles": "CCc1nc2ccc(Cl)cn2c1C(=O)NCc1ccc2[nH]c(-c3ccc(OC(F)(F)F)cc3)nc2c1", "note": "[compound 185, 6-Chloro-2-ethyl-N-((2-(4-(trifluoromethoxy)phenyl)-1H-benzo[d]imidazol-5-yl)methyl)imidazo[1,2-a]pyridine-3-carboxamide]", "inhibition at 10 µM": "40 to 69"}, {"smiles": "CCc1nc2cc(Cl)ccn2c1C(=O)NCc1ccc2[nH]c(-c3ccc(OC(F)(F)F)cc3)nc2c1", "note": "[compound 186, 7-Chloro-2-ethyl-N-((2-(4-(trifluoromethoxy)phenyl)-1H-benzo[d]imidazol-5-yl)methyl)imidazo[1,2-a]pyridine-3-carboxamide]", "inhibition at 10 µM": "40 to 69"}, {"smiles": "CCc1nc2cc(Cl)ccn2c1C(=O)NCc1ccc(Oc2ccc(OC(F)(F)F)cc2)nc1", "note": "[compound 190, 7-Chloro-2-ethyl-N-((6-(4-(trifluoromethoxy)phenoxy)pyridin-3-yl)methy)imidazo[1,2-a]pyridine-3-carboxamide]", "inhibition at 10 µM": "> 69"}, {"smiles": "CCc1nc2ccc(Cl)cn2c1C(=O)NCc1ccc(N2CCCCCC2)cc1", "note": "[compound 192, N-(4-(Azepan-1-yl)benzyl)-6-chloro-2-ethylimidazo[1,2-a]pyridine-3-carboxamide]", "inhibition at 10 µM": "40 to 69"}, {"smiles": "CCc1nc2cc(Cl)ccn2c1C(=O)NCc1ccc(N2CCCCCC2)cc1", "note": "[compound 193, N-(4-(Azepan-1-yl)benzyl)-7-chloro-2-ethylimidazo[1,2-a]pyridine-3-carboxamide]", "inhibition at 10 µM": "> 69"}, {"smiles": "CCc1nc2cc(Cl)ccn2c1C(=O)NCc1ccc(N2CC=CCC2)cc1", "note": "[compound 194, 7-Chloro-N-(4-(5,6-dihydropyridin-1(2H)-yl)benzyl)-2-ethylimidazo[1,2-a]pyridine-3-carboxamide]", "inhibition at 10 µM": "> 69"}, {"smiles": "CCc1nc2cc(Cl)ccn2c1C(=O)NCc1ccc(N2CCC(C)CC2)cc1", "note": "[compound 195, 7-Chloro-2-ethyl-N-(4-(4-methylpiperidin-1-yl)benzyl)imidazo[1,2-a]pyridine-3-carboxamide]", "inhibition at 10 µM": "40 to 69"}, {"smiles": "CCc1nc2cc(Cl)ccn2c1C(=O)NCc1ccc2[nH]c(CN3CCOCC3)nc2c1", "note": "[compound 196, 7-Chloro-2-ethyl-N-((2-(morpholinomethyl)-1H-benzo[d]imidazol-5-yl)methyl)imidazo[1,2-a]pyridine-3-carboxamide]", "inhibition at 10 µM": "< 40"}, {"smiles": "CCc1nc2cc(Cl)ccn2c1C(=O)NCc1ccc(N2CCC(=O)CC2)cc1", "note": "[compound 200, 7-Chloro-2-ethyl-N-(4-(4-oxopiperidin-1-yl)benzyl)imidazo[1,2-a]pyridine-3-carboxamide]", "inhibition at 10 µM": "40 to 69"}, {"smiles": "CCc1nc2cc(Cl)ccn2c1C(=O)NCc1ccc(N2CC3CC=CCC3C2)cc1", "note": "(centres unmarked) [compound 202, 7-Chloro-N-(4-(3a,4-dihydro-1H-isoindol-2(3H7H,7aH)-yl)benzyl)-2-ethylimidazo[1,2-a]pyridine-3-carboxamide]", "inhibition at 10 µM": "40 to 69"}, {"smiles": "CCc1nc2cc(Cl)ccn2c1C(=O)OCc1ccc(Oc2ccc(F)cc2)cc1", "note": "[compound 203]", "inhibition at 10 µM": "< 40"}, {"smiles": "CCc1nc2ccc(F)cn2c1C(=O)NCc1ccc(OCc2ccc(OC(F)(F)F)cc2)cc1", "note": "[compound 205, 2-Ethyl-6-fluoro-N-(4-(4-(trifluoromethoxy)benzyloxy)benzyl)imidazo[1,2-a]pyridine-3-carboxamide]", "inhibition at 10 µM": "40 to 69"}]}, {"target": "T1, Human 5-lipoxygenase", "assay": "Activity of compounds against 5-LO enzyme (LTB4 measurement and/or fluorescence method)", "assay_type": "biochemical", "settings": "6 or 11 point dose response in duplicate", "how_it_was_run": "as §1", "units": {"IC50": "µM"}, "values": [{"smiles": "CCc1nc2ccc(Cl)cn2c1C(=O)N(C)Cc1ccc(Oc2ccc(F)cc2)cc1", "note": "[compound 164, 6-Chloro-2-ethyl-N-(4-(4-fluorophenoxy)benzyl)-N-methylimidazo[1,2-a]pyridine-3-carboxamide]", "IC50": "1 to 20"}, {"smiles": "CCc1nc2ccc(Cl)cn2c1C(=O)NCc1ccc(Nc2ccc(OC(F)(F)F)cc2)cc1", "note": "[compound 174, 6-Chloro-2-ethyl-N-(4-(4-(trifluoromethoxy)phenylamino)benzyl)imidazo[1,2-a]pyridine-3-carboxamide]", "IC50": "1 to 20"}, {"smiles": "CCc1nc2cc(Cl)ccn2c1C(=O)NCc1ccc(Nc2ccc(OC(F)(F)F)cc2)cc1", "note": "[compound 175, 7-Chloro-2-ethyl-N-(4-(4-(trifluoromethoxy)phenylamino)benzyl)imidazo[1,2-a]pyridine-3-carboxamide]", "IC50": "1 to 20"}, {"smiles": "CCc1nc2cc(Cl)ccn2c1C(=O)NCc1ccc(Oc2ccc(OC(F)(F)F)cc2)nc1", "note": "[compound 190, 7-Chloro-2-ethyl-N-((6-(4-(trifluoromethoxy)phenoxy)pyridin-3-yl)methy)imidazo[1,2-a]pyridine-3-carboxamide]", "IC50": "1 to 20"}, {"smiles": "CCc1nc2cc(Cl)ccn2c1C(=O)NCc1ccc(N2CCCCCC2)cc1", "note": "[compound 193, N-(4-(Azepan-1-yl)benzyl)-7-chloro-2-ethylimidazo[1,2-a]pyridine-3-carboxamide]", "IC50": "> 20"}, {"smiles": "CCc1nc2cc(Cl)ccn2c1C(=O)NCc1ccc(N2CC=CCC2)cc1", "note": "[compound 194, 7-Chloro-N-(4-(5,6-dihydropyridin-1(2H)-yl)benzyl)-2-ethylimidazo[1,2-a]pyridine-3-carboxamide]", "IC50": "> 20"}]}]}
